These results are taken from PubChem BioAssay (NCI).

Among the test systems are HCT-15 colon; NCI-H460 lung; HT29 colon; COLO 205 colon; SK-MEL-5 melanoma; TK-10 renal; KM12 colon; SK-OV-3 ovarian; PC-3 prostate; 786-0 renal.
What all share (test): NCI tumour cell line growth inhibition, 48 h

Each structure is given as a SMILES string.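 Interpolation was linear, between the two tested concentrations surrounding the appropriate level; five concentrations were tested over 48 hours in 96-well plates. GI50 = concentration required for 50% inhibition of growth. The concentration for full growth arrest is given as TGI.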

As for `CN(C)C(=S)NN=C(c1ccccn1)c1ccccn1`, the GI50 in the experiment with HCT-15 colon is less than 0.012 µM; in the experiment with NCI-H460 lung it was less than 0.025 µM; in the experiment on HT29 colon, less than 0.01 µM; in the experiment on COLO 205 colon, less than 0.01 µM; in the experiment on SK-MEL-5 melanoma, 0.0629 µM; with TK-10 renal it was 0.183 µM. Besides, the GI50 in the experiment with KM12 colon is 0.046 µM; with SK-OV-3 ovarian, 0.0487 µM; in the experiment with PC-3 prostate, less than 0.0123 µM; with 786-0 renal, less than 0.0232 µM. The TGI with HCT-15 colon was 25.5 µM; in the experiment with HT29 colon, more than 100 µM; in the experiment with COLO 205 colon, 11.8 µM; in the experiment on SK-MEL-5 melanoma it was 3.45 µM; in the experiment on TK-10 renal it was 16.5 µM; in the experiment on KM12 colon, 21.6 µM. The TGI was 16.7 µM in the experiment with SK-OV-3 ovarian, more than 43.8 µM with PC-3 prostate and 1.26 µM in the experiment on 786-0 renal.

As for `CN(C)c1ccc(C(=O)c2ccc(N(C)C)c(N)c2)cc1N`, the GI50 in the experiment on HCT-15 colon was 2.35 µM; in the experiment on NCI-H460 lung it was 2.62 µM; with HT29 colon, 1.14 µM; in the experiment on COLO 205 colon, 2.32 µM; with SK-MEL-5 melanoma, 2.7 µM; with TK-10 renal, 14.5 µM. Further, the GI50 in the experiment with KM12 colon was 0.785 µM; with SK-OV-3 ovarian, 5.57 µM; in the experiment with PC-3 prostate it was 5.97 µM; in the experiment on 786-0 renal, 9.74 µM. Moreover, the TGI in the experiment with HCT-15 colon was more than 100 µM; in the experiment with NCI-H460 lung, 34.5 µM; in the experiment with HT29 colon, 19.2 µM; with COLO 205 colon it was 18.5 µM; in the experiment with SK-MEL-5 melanoma, 34.2 µM; in the experiment on TK-10 renal it was 98.6 µM. Also, the TGI is 43.4 µM in the experiment on KM12 colon, more than 45 µM in the experiment with SK-OV-3 ovarian, more than 100 µM with PC-3 prostate and more than 91.5 µM in the experiment with 786-0 renal.

For the compound `Nc1nc2c(c3ncccc13)C(c1ccc(Cl)c(Cl)c1)Cc1ncccc1-2` (centres undefined), the GI50 is 4.36 µM in the experiment on HCT-15 colon; 3.47 µM in the experiment on NCI-H460 lung; 3.22 µM with HT29 colon; 2.65 µM in the experiment on COLO 205 colon; 3.99 µM in the experiment with SK-MEL-5 melanoma; 6.46 µM in the experiment with TK-10 renal. Further, the GI50 in the experiment with KM12 colon was 2.73 µM; in the experiment on SK-OV-3 ovarian, 3.49 µM; in the experiment with PC-3 prostate it was 3.4 µM; in the experiment with 786-0 renal it was 3.49 µM. Besides, the TGI in the experiment with HCT-15 colon was 16.1 µM; in the experiment on NCI-H460 lung it was 13 µM; in the experiment on HT29 colon, 11.9 µM; in the experiment on COLO 205 colon it was 7.3 µM; with SK-MEL-5 melanoma it was 14.8 µM; with TK-10 renal it was 20.5 µM. Also, the TGI with KM12 colon is 14.4 µM; in the experiment with SK-OV-3 ovarian it was 12.6 µM; with PC-3 prostate it was 15.5 µM; in the experiment on 786-0 renal it was 13.4 µM.

On to `Cn1c(=O)c(Oc2cccc(F)c2)cc2cnc(NC3CCOCC3)nc21`, for which the GI50 is more than 25 µM with HCT-15 colon; more than 25 µM with NCI-H460 lung; more than 25 µM in the experiment on HT29 colon; more than 25 µM in the experiment with COLO 205 colon; more than 25 µM in the experiment on SK-MEL-5 melanoma; more than 22 µM in the experiment with TK-10 renal. The GI50 in the experiment with KM12 colon, with SK-OV-3 ovarian, with PC-3 prostate and with 786-0 renal was more than 25 µM throughout. The TGI in the experiment with HCT-15 colon, with NCI-H460 lung, with HT29 colon, in the experiment on COLO 205 colon, with SK-MEL-5 melanoma and in the experiment with TK-10 renal was more than 25 µM throughout. In addition, the TGI in the experiment with KM12 colon, in the experiment with SK-OV-3 ovarian, in the experiment on PC-3 prostate and in the experiment on 786-0 renal was more than 25 µM in each case.

Consider `O=C1c2ccccc2-c2c1c1ccc([N+](=O)[O-])cc1c(=O)n2CCNCCCNCCn1c2c(c3ccc([N+](=O)[O-])cc3c1=O)C(=O)c1ccccc1-2`, for which the GI50 is 0.197 µM in the experiment with HCT-15 colon; 2.68 µM with NCI-H460 lung; 0.0105 µM in the experiment on HT29 colon; 0.433 µM in the experiment with COLO 205 colon; 0.347 µM in the experiment on SK-MEL-5 melanoma; 1.27 µM with TK-10 renal. In addition, the GI50 in the experiment on KM12 colon is 0.172 µM; with SK-OV-3 ovarian, 6.75 µM; in the experiment on PC-3 prostate, 0.547 µM; in the experiment on 786-0 renal, 0.0515 µM. The TGI is 16.1 µM with HCT-15 colon; 18.7 µM in the experiment on NCI-H460 lung; 5.52 µM in the experiment on HT29 colon; 9.77 µM with COLO 205 colon; 7.51 µM in the experiment with SK-MEL-5 melanoma; 22.1 µM with TK-10 renal. In addition, the TGI in the experiment with KM12 colon stood at 11.3 µM; with SK-OV-3 ovarian, 22.9 µM; in the experiment on PC-3 prostate it was 9.18 µM; with 786-0 renal, 2.92 µM.

With `COc1cc2c(cc1OCCCOC1=C=C=C(c3ccc4c(c3)c3cc(-c5ccc(OCCCOc6cc7c(cc6OC)C(=O)N6CCC[C@H]6C=N7)cc5)ccc3n4S(=O)(=O)c3ccc(C)cc3)C=C1)N=C[C@@H]1CCCN1C2=O`, the GI50 was 7 µM in the experiment on HCT-15 colon; 1.38 µM in the experiment on NCI-H460 lung; 1.44 µM with HT29 colon; 1.9 µM in the experiment on COLO 205 colon; 4.26 µM in the experiment on SK-MEL-5 melanoma; 1.27 µM in the experiment on TK-10 renal. Further, the GI50 in the experiment on KM12 colon is 1.46 µM; with SK-OV-3 ovarian it was 5.42 µM; with PC-3 prostate it was 1.27 µM; with 786-0 renal, 1.38 µM. Further, the TGI is 20.3 µM in the experiment on HCT-15 colon; 7.99 µM in the experiment on NCI-H460 lung; more than 20.5 µM with HT29 colon; 9.78 µM in the experiment with COLO 205 colon; 11.1 µM in the experiment with SK-MEL-5 melanoma; 5.05 µM in the experiment on TK-10 renal. Further, the TGI in the experiment on KM12 colon was 4.3 µM; in the experiment on SK-OV-3 ovarian, 16.5 µM; with PC-3 prostate, more than 28.9 µM; with 786-0 renal, 4.12 µM.
